Where two headings read alike, the source gives them in different places.
Key:
[1] = system: P. falciparum 3D7 parasites; experiment: P. falciparum 3D7 asexual stage LDH assay (72 h); assay type: cell-based, Plasmodium falciparum; details: Plasmodium falciparum, 3D7 / DSM 265, parent 3D7 for resistant populations; LDH assay, 3 experiments (SYBR-green for DSM265); read-out: Pf 3D7 EC50 (SD)
Procedure, shortened: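 Asexual P. falciparum 3D7 parasites were grown for 72 h over a 10-point, 3-fold series starting at 1 μM in 0.1% DMSO, with 100 nM chloroquine as negative growth control. After freeze-thaw, parasite LDH was read at 650 nm, and EC50 came from a variable-slope sigmoidal fit.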

[2] = system: W466-resistant populations; experiment: 72 h growth assay against W466-resistant populations; assay type: cell-based, Plasmodium falciparum; details: Plasmodium falciparum
Description: To determine the mechanism of action of the cyclopropyl carboxamide series, a forward genetic resistance study was undertaken on the two hit compounds W466 (1) and W499 (2).
The structures of W466 (1) and W499 (2) are slightly different although they appear to belong to the same structural class. To confirm if W466 (1) and W499 (2) may have the same molecular target, W466 (1) and W499 (2) were each evaluated for cross resistance against their respective resistant populations from the pulsed forward genetic study (Fig. 2).

[3] = system: W499-resistant populations; experiment: microbe, parasite or virus in culture; assay type: cell-based, Plasmodium falciparum; details: for EC50: Plasmodium falciparum
Description: To confirm if W466 (1) and W499 (2) may have the same molecular target, W466 (1) and W499 (2) were each evaluated for cross resistance against their respective resistant populations from the pulsed forward genetic study (Fig. 2).

mitochondrial ETC = experiment: P. falciparum oxygen consumption rate (OCR) assay (Seahorse XFe96); assay type: cell-based, Plasmodium falciparum; details: compounds 5 μM
Protocol: To provide further evidence to support the cyclopropyl carboxamide series targeting cyt b, an oxygen consumption rate (OCR) assay was performed using a Seahorse XFe96 Flux Analyzer. The primary role of the mitochondria ETC is to produce ATP oxidative phosphorylation, and thus the oxygen consumption directly quantifies mitochondrial ETC activity. In this assay, malate, which is a substrate of malate quinone dehydrogenase (MQD), was added to provide a base line of oxygen consumption at approximately 50 pmol/min (Fig. 4). […] Finally, NaN3 was added to inhibit complex IV to bring the OCR back to basal levels.
Fig. 4 P. falciparum oxygen consumption rate (OCR) assay. Data represent the means and SDs of 3 technical replicates. Time points and reagent injections were as follows, 1. First 5 timepoints measured the basal level of malate-dependent OCR; 2. Compounds (5 μM) were injected independently (indicated by arrow), and OCR measured for 8-timepoints; 3. TMPD (a cytochrome c electron donor) was injected, and OCR measured for 5 time points; 4. NaN3 (a complex IV inhibitor) was then added, and OCR measured for 5 time points.
ETC Biosensor Assay. This assay was performed as previously described. Briefly, 3 × 10^8 trophozoite infected RBCs were purified using the SuperMACS II separator (Miltenyi Biotec, Germany). The trophozoite-stage parasites were released from erythrocytes by treating them with 0.05 % (w/v) pre-warmed saponin in phosphate-buffered saline (PBS) at 37 °C for 3 min. The cells were washed with pre-warmed PBS, three times. […] The cells were measured for oxygen consumption rate (OCR) using Seahorse XFe96 flux analyzer (Agilent). The OCR was assessed for five cycles of 20 s mixing, 1 min waiting, 2.5 min measuring to establish baseline OCR before any substrate injections, for eight cycles of 20 s mixing, 1 min waiting followed by 2.5 min measuring after inhibitor injection from port A and for five cycles of 20 s mixing 1 min waiting, 2.5 min measuring after TMPD, and NaN3, injections.

[4] = system: ring-stage P. falciparum parasites; experiment: Asexual stage of arrest assay; assay type: cell-based, Plasmodium falciparum; details: 10 times EC50, sampled every 12 h for 48 h
Protocol: Characterization of asexual stage phenotype and rate of asexual kill is important in determining the downstream application and TCP of an antimalarial series. […] Parasites were sampled every 12 h for 48 h, to prepare Giemsa-stained blood smears for analysis by microscopy. Parasitemia of each sample was measured by flow cytometry using SYBR-Green DNA staining.
Asexual Stage of Arrest Assay. This assay was conducted as previously described.

Pf Dd2 parental line = details: known drug controls; ref Nguyen, Dans et al. [8]; cited from earlier work
Pf SB1-A6 strain = system: Pf SB1-A6 strain; set-up: method as in Nguyen, Dans et al. [8]; details: known drug controls; ref Nguyen, Dans et al. [8]; cited from earlier work
[5] = system: Pf Dd2 expressing ScDHODH; set-up: method as in Nguyen, Dans et al. [8]; details: known drug controls; ref Nguyen, Dans et al. [8]; cited from earlier work
[6] = system: Pf Dd2 strain with an I22L mutation in the Qi site cyt b; set-up: method as in Nguyen, Dans et al. [8]; details: known drug controls; ref Nguyen, Dans et al. [8]; read-out: Pf cyt b mutant strains EC50 Dd2 cyt b(I22L); cited from earlier work
[7] = system: Pf 3D7 3-oxadiazole quinolone resistant strain with a V259L mutation in the Qo site of cyt b; set-up: method as in Nguyen, Dans et al. [8]; details: known drug controls; ref Nguyen, Dans et al. [8]; read-out: Pf cyt b mutant strains EC50 3D7 cyt b(V259L); cited from earlier work
human HepG2 cell line = experiment: Human HepG2 growth inhibition assay (Cell TitreGlo, 48 h); assay type: cell-based; details: HepG2 cell growth inhibition over 48 h
Procedure, shortened: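 HepG2 cells (1000/well, DMEM + 10% FCS) exposed 48 h at 37 °C, 5% CO2 to compound from 50 μM top concentration in 1:2 dilutions, 0.5% DMSO final. Viability read by Cell Titer Glo, normalised to DMSO and 10 μM bortezomib; EC50 by four-parameter variable-slope fit.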

[8] = read-out: W466-resistant populations EC50 (SD) #1
[9] = read-out: W466-resistant populations EC50 (SD) #2
[10] = read-out: W466-resistant populations EC50 (SD) #3
[11] = DSM265, read-out: W499-resistant populations EC50 (SD) #2
[12] = DSM265, read-out: W499-resistant populations EC50 (SD) #3

Row | Compound | EC50 [1] | EC50 ([2]; read-out: EC50 against W466-resistant parasites) | EC50 [2, 8] | EC50 [2, 9] | EC50 [2, 10] | EC50 [3, 11] | EC50 [3, 12] | effect on malate-dependent oxygen consumption rate (OCR) (mitochondrial ETC) | asexual stage of arrest [4] | EC50 (Pf Dd2 parental line) | EC50 (Pf SB1-A6 strain) | EC50 [5] | fold shift in EC50 against W499-resistant populations compared to wildtype 3D7 [3] | EC50 ([3]; read-out: EC50 against W499-resistant parasites) | EC50 [6] | EC50 [7] | CC50 (human HepG2 cell line)
1 | O=C1C(O)=C([C@H]2CC[C@H](c3ccc(Cl)cc3)CC2)C(=O)c2ccccc21 [ATQ, atovaquone] | 1 nM | 1 nM | 2 nM | 1 nM | 1 nM | 4 nM | 3 nM | an OCR reduction was detected | arrest at the trophozoite stage | 1 nM | > 10000 nM | > 10000 nM |  |  |  |  | 
2 | Cc1cc(Nc2ccc(S(F)(F)(F)(F)F)cc2)n2nc(C(C)(F)F)nc2n1 [DSM265] | 53 nM |  | 19 nM | 13 nM | 13 nM | > 1000 nM | > 1000 nM | didn't change the basal OCR |  | 24 nM | > 10000 nM | > 10000 nM | > 10 fold | > 1000 nM |  |  | 
3 | COc1cc2[nH]c(C)c(-c3ccc(Oc4ccc(OC(F)(F)F)cc4)cc3)c(=O)c2cc1Cl [ELQ300] | 13 nM |  | 36 nM | 18 nM | 20 nM | 53 nM | 45 nM |  |  | 21 nM |  |  | 2 fold |  | 176 nM | 12 nM | 
4 | N-Cyclopropyl-4-((cyclopropyl(3,4-dimethylbenzyl)amino)methyl)benzamide [Compound 79] |  |  |  |  |  |  |  |  |  |  |  |  |  |  |  |  | > 40000 nM
